Data reported in patent publication US8410150B2, “Inhibitors of carnitine palmitoyltransferase and treating cancer” (University Health Network, priority 2007, dated 2013).

Biological target: T1, human CPT1A (Homo sapiens, UniProt P50416)
T1 construct: made in house; host or cells: Saccharomyces cerevisiae (pESC-trp) or cultured mammalian cells (pCDNA3.1); mitochondrial extract
T1 sequence (P50416 1-773): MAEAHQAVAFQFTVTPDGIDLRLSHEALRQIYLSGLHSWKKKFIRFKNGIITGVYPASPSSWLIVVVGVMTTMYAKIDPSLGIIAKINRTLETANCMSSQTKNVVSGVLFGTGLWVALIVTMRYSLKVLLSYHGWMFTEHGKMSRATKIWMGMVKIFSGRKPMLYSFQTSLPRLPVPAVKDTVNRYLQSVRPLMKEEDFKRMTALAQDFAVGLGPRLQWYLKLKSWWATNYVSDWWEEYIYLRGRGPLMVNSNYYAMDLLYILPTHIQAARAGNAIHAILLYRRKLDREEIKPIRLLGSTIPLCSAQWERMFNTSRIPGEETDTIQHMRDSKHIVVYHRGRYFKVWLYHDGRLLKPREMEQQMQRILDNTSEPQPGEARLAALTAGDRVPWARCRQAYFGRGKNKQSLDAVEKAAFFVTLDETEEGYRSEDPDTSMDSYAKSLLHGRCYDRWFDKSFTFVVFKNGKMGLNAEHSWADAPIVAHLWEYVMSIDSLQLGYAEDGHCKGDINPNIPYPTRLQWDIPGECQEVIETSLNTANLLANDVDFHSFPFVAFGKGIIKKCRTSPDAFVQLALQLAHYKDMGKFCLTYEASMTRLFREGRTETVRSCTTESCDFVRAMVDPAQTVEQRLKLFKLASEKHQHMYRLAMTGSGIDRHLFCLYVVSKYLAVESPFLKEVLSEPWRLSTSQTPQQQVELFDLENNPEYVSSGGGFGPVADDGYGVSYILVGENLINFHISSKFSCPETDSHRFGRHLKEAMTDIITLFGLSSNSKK
Assay: Human CPT1A LC/MS assay
Type: biochemical
Conditions: human CPT1A LC/MS assay, dose response format
Procedure, shortened: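 Mitochondrial extracts (1.6 μg protein) expressing human CPT1A, preincubated 10 min with compound in 20% DMSO, then reacted 10 min at room temperature with 20 μM palmitoyl-CoA, 50 μM L-carnitine (pH 7.5). Palmitoyl carnitine was quantified by LC/MS against a myristoyl carnitine standard; 16-point, 2-fold titrations gave dose response.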

| IC50 [µM] | Structure (SMILES) |
| --- | --- |
| 1000 to 2500 | CCCn1cc(C(=O)N[C@H](CC(=O)[O-])C[N+](C)(C)C)c(C)n1 [Example S54, (R)-3-(3-methyl-1-propyl-1H-pyrazole-4-carboxamido)-4-(trimethyl-ammonio)butanoate] |
| ≤ 1 | CCCCCc1ccc(CCc2ccc(NS(=O)(=O)N[C@H](CC(=O)[O-])C[N+](C)(C)C)cc2)cc1 [Example S108, (R)-3-(N-(4-(4-pentylphenethyl)phenyl)sulfamoylamino)-4-(trimethyl-ammonio)butanoate] |
| 100 to 1000 | C[N+](C)(C)C[C@@H](CC(=O)O)NC(=O)c1ccc(CS(=O)(=O)Cc2ccccc2)o1 [Example S61, (R)-3-(5-(benzylsulfonylmethyl)furan-2-carboxamido)-4-(trimethyl-ammonio)butanoate 2,2,2-trifluoroacetate] |
| 100 to 1000 | C[N+](C)(C)C[C@@H](CC(=O)O)NC(=O)c1cccc(CCc2ccccc2)c1 [Example S46, (R)-3-(3-phenethylbenzamido)-4-(trimethylammonio)butanoate] |
| 1 to 10 | C[N+](C)(C)C[C@@H](CC(=O)[O-])NC(=O)c1ccc(COc2cccc3ccccc23)o1 [Example S58, (R)-3-(5-((naphthalen-1-yloxy)methyl)furan-2-carboxamido)-4-(trimethyl-ammonio)butanoate] |
| 100 to 1000 | C[N+](C)(C)C[C@@H](CC(=O)[O-])NC(=O)Nc1ccc(-c2cccs2)cc1 [Example S11, (R)-3-(3-(4-(thiophen-2-yl)phenyl)ureido)-4-(trimethylammonio)butanoate] |
| 10 to 100 | CCCc1ccc(OCc2ccc(C(=O)N[C@H](CC(=O)[O-])C[N+](C)(C)C)o2)c(OC)c1 [Example S55, (R)-3-(5-((2-methoxy-4-propylphenoxy)methyl)furan-2-carboxamido)-4-(trimethylammonio)butanoate] |
| ≤ 1 | CCCCCCCCc1ccc(NS(=O)(=O)N[C@H](CC(=O)[O-])C[N+](C)(C)C)cc1 [Example S30, (R)-3-(N-(4-octylphenyl)sulfamoylamino)-4-(trimethylammonio)butanoate] |
| ≤ 1 | CCCCCc1ccc(C#Cc2ccc(C(=O)N[C@H](CC(=O)[O-])C[N+](C)(C)C)o2)cc1 [Example S115, (R)-3-carboxy-N,N,N-trimethyl-2-(5-((4-pentylphenyl)ethynyl)furan-2-carboxamido)propan-1-aminium 2,2,2-trifluoroacetate] |
| 100 to 1000 | C[N+](C)(C)C[C@@H](CC(=O)[O-])NC(=O)Nc1cccc(-n2cccc2)c1 [Example S84, (R)-3-(3-(3-(1H-pyrrol-1-yl)phenyl)ureido)-4-(trimethylammonio)butanoate] |
| 1000 to 2500 | C[N+](C)(C)C[C@@H](CC(=O)O)NS(=O)(=O)c1ccc(-c2ccno2)s1 [Example S22, (R)-3-carboxy-2-(5-(isoxazol-5-yl)thiophene-2-sulfonamido)-N,N,N-trimethylpropan-1-aminium 2,2,2-trifluoroacetate] |
| 10 to 100 | CCCCCc1ccc(NC(=O)N[C@H](CC(=O)[O-])C[N+](C)(C)C)cc1 [Example S15, (R)-3-Carboxy-N,N,N-trimethyl-2-(3-(4-pentylphenyl)ureido)propan-1-aminium] |
| > 2500 | Cc1nc(-c2cnccn2)sc1C(=O)N[C@H](CC(=O)[O-])C[N+](C)(C)C [Example S51, (R)-3-(4-methyl-2-(pyrazin-2-yl)thiazole-5-carboxamido)-4-(trimethyl-ammonio)butanoate] |
| 100 to 1000 | C[N+](C)(C)C[C@@H](CC(=O)[O-])NC(=O)Nc1ccc(C(F)(F)F)cc1Cl [Example S6, (R)-3-(3-(2-chloro-4-(trifluoromethyl)phenyl)ureido)-4-(trimethylammonio)-butanoate] |
| 10 to 100 | CCCCCCCCc1ccc(N(C)S(=O)(=O)N[C@H](CC(=O)O)C[N+](C)(C)C)cc1 [Example S93, (R)-3-(N-methyl-N-(4-octylphenyl)sulfamoylamino)-4-(trimethylammonio)-butanoate] |
| ≤ 1 | CCOc1ccc(OCc2ccc(C(=O)N[C@H](CC(=O)[O-])C[N+](C)(C)C)o2)cc1 [Example S68, (R)-3-(5-((4-ethoxyphenoxy)methyl)furan-2-carboxamido)-4-(trimethyl-ammonio)butanoate] |
| 100 to 1000 | Cc1ccoc1C(=O)Nc1ccc(C(=O)N[C@H](CC(=O)[O-])C[N+](C)(C)C)cc1 [Example S5, (R)-3-(4-(3-methylfuran-2-carboxamido)benzamido)-4-(trimethylammonio)-butanoate] |
| ≤ 1 | CCCCCc1ccc(CCc2ccc(C(=O)N[C@H](CC(=O)O)C[N+](C)(C)C)o2)cc1 [Example S123, (R)-3-carboxy-N,N,N-trimethyl-2-(5-(4-pentylphenethyl)furan-2-carboxamido)propan-1-aminium 2,2,2-trifluoroacetate] |
| 1 to 10 | CCCCCCC#Cc1ccc(NS(=O)(=O)N[C@H](CC(=O)[O-])C[N+](C)(C)C)cc1 [Example S106, (R)-3-(N-(4-(oct-1-ynyl)phenyl)sulfamoylamino)-4-(trimethylammonio) butanoate] |
| 1 to 10 | CCCCCc1ccc(CCc2ccc(S(=O)(=O)N[C@H](CC(=O)O)C[N+](C)(C)C)s2)cc1 [Example S83, (R)-3-carboxy-N,N,N-trimethyl-2-(5-(4-pentylphenethyl)thiophene-2-sulfonamido)propan-1-aminium 2,2,2-trifluoroacetate] |
| 1 to 10 | CCCCCc1ccc(C#Cc2ccc(S(=O)(=O)N[C@H](CC(=O)O)C[N+](C)(C)C)s2)cc1 [Example S82, (R)-3-carboxy-N,N,N-trimethyl-2-(5-((4-pentylphenyl)-ethynyl)thiophene-2-sulfonamido)propan-1-aminium 2,2,2-trifluoroacetate] |
| 100 to 1000 | C[N+](C)(C)C[C@@H](CC(=O)O)NS(=O)(=O)c1ccc(C#Cc2ccccc2)s1 [Example S78, (R)-3-carboxy-N,N,N-trimethyl-2-(5-(phenylethynyl)thiophene-2-sulfonamido)propan-1-aminium 2,2,2-trifluoroacetate] |
| 100 to 1000 | C[N+](C)(C)C[C@@H](CC(=O)O)NC(=O)c1ccc(-c2cccs2)s1 [Example S44, (R)-3-(2,2′-bithiophene-5-carboxamido)-4-(trimethylammonio)butanoate] |
| 100 to 1000 | C[N+](C)(C)C[C@@H](CC(=O)[O-])NC(=O)c1ccc(Br)o1 [Example S114, (R)-3-(5-bromofuran-2-carboxamido)-4-(trimethylammonio)butanoate] |
| ≤ 1 | C[N+](C)(C)C[C@@H](CC(=O)O)NC(=O)c1ccc(CCc2ccccc2)o1 [Example S42, (R)-3-(5-phenethylfuran-2-carboxamido)-4-(trimethylammonio)-butanoate] |
